Each structure is given as a SMILES string.

The species named for one data set is Homo sapiens. Put plainly: Ester prodrugs: T1/2 in human plasma. In kind it is ADME.
Details: not given
Take `CCN(CC)Cc1cccc(C(=O)OCn2c(=O)oc3ccc(Cl)cc32)c1`: the T1/2 worked out at 28 min.

Staying with this data set, now noted: human, in vitro.
Turning to `C[C@H]1CC2C(C(O)CC3(C)C2CC[C@]3(O)C(=O)COC(=O)c2cccc(CN(C)CCN(C)C)c2)C2(C)C=CC(=O)C=C12` (stereo not given in full), the T1/2 was found to be 18 min. For the compound `CCN(CC)CCN(CC)Cc1cccc(C(=O)OCC(=O)[C@@]2(O)CCC3C4CCC5=CC(=O)CCC5(C)C4C(O)CC32C)c1` (stereo not given in full), the T1/2 came to 8 min. Consider `CCN(CC)Cc1cccc(C(=O)OCC(=O)[C@@]2(O)CCC3C4CCC5=CC(=O)CCC5(C)C4C(O)CC32C)c1` (stereo not given in full), for which the T1/2 came out at 34 min. For `CN1CCN(Cc2cccc(C(=O)OCC(=O)[C@@]3(O)CCC4C5CCC6=CC(=O)CCC6(C)C5C(O)CC43C)c2)CC1` (stereo not given in full), the T1/2 came to 15 min. With `Cc1ncc([N+](=O)[O-])n1CCOC(=O)c1cccc(CN2CCN(C)CC2)c1`, the T1/2 stood at 0.6 min. On the same count and under the same terms, the figure for `Cc1ncc([N+](=O)[O-])n1CCOC(=O)c1ccc(CN(C)C)cc1` is 4.7 min.

Take `CCN(CC)Cc1ccc(C(=O)OCC(=O)[C@@]2(O)CCC3C4CCC5=CC(=O)CCC5(C)C4C(O)CC32C)cc1` (stereo not given in full): the T1/2 is recorded as 107 min.

On to `CN1CCN(Cc2cccc(C(=O)OCC(NC(=O)C(Cl)Cl)C(O)c3ccc([N+](=O)[O-])cc3)c2)CC1` (stereo not given), for which the T1/2 came out at 5 min. On the same count and under the same terms, the figure for `CC(=O)Nc1ccc(OC(=O)c2cccc(CN3CCOCC3)c2)cc1` is 56 min; for `Cc1ncc([N+](=O)[O-])n1CCOC(=O)c1cccc(CN2CCOCC2)c1` it is 5 min; for `CCN(CC)Cc1cccc(C(=O)OCN2C(=O)NC(c3ccccc3)(c3ccccc3)C2=O)c1` it is 20 min. The same measure, in the same setting: the figure for `CCN(CC)Cc1cccc(C(=O)OCn2cnc3c2c(=O)n(C)c(=O)n3C)c1` is 0.4 min. As to `O=C(OCn1ncc2c(=O)[nH]cnc21)c1cccc(CN2CCOCC2)c1`, the T1/2 was 8.5 min.

For `Cc1ncc([N+](=O)[O-])n1CCOC(=O)c1ccc(CN2CCOCC2)cc1`, the T1/2 was found to be 0.4 min.

For the compound `Nc1nc(O)c2ncn(COCCOC(=O)c3ccc(CN4CCOCC4)cc3)c2n1`, the T1/2 was 3.7 min. Turning to `CN1CCN(Cc2cccc(C(=O)OCn3ncc4c(=O)[nH]cnc43)c2)CC1`, the T1/2 turned out to be 0.5 min. The same measure, in the same setting: the figure for `CCN(CC)CCN(CC)Cc1cccc(C(=O)Oc2ccc(NC(C)=O)cc2)c1` is 15 min.

For the compound `CCN(CC)Cc1cccc(C(=O)OCC(NC(=O)C(Cl)Cl)C(O)c2ccc([N+](=O)[O-])cc2)c1` (stereo not given), the T1/2 amounted to 8 min. On the same count and under the same terms, the figure for `C[C@H]1CC2C(C(O)CC3(C)C2CC[C@]3(O)C(=O)COC(=O)c2cccc(CN3CCN(C)CC3)c2)C2(C)C=CC(=O)C=C12` (stereo not given in full) is 29 min; for `CNCc1cccc(C(=O)OCC(=O)[C@@]2(O)CCC3C4CCC5=CC(=O)CCC5(C)C4C(O)CC32C)c1` (stereo not given in full) it is 25 min.

With `CN1CCN(Cc2ccc(C(=O)OCn3ncc4c(=O)[nH]cnc43)cc2)CC1`, the T1/2 is listed as 11 min. The same measure, in the same setting: the figure for `Cn1c(=O)c2c(ncn2COC(=O)c2cccc(CN3CCOCC3)c2)n(C)c1=O` is 2.8 min. For the compound `CC(=O)Nc1ccc(OC(=O)c2ccc(CN(C)C)cc2)cc1`, the T1/2 came out at 87 min.

On to `CN1CCN(Cc2cccc(C(=O)OCC(=O)[C@@]3(O)CCC4C5CCC6=CC(=O)C=CC6(C)C5C(O)CC43C)c2)CC1` (stereo not given in full), for which the T1/2 was determined as 18 min. Same read-out and setting: the figure for `CN1CCN(Cc2ccc(C(=O)OCC(=O)[C@@]3(O)CCC4C5CCC6=CC(=O)CCC6(C)C5C(O)CC43C)cc2)CC1` (stereo not given in full) is 147 min; for `CC12CCC(=O)C=C1CCC1C2C(O)CC2(C)C1CC[C@]2(O)C(=O)COC(=O)c1cccc(CN2CCOCC2)c1` (stereo not given in full) it is 62 min.

For `CC12CCC(=O)C=C1CCC1C2C(O)CC2(C)C1CC[C@]2(O)C(=O)COC(=O)c1ccc(CN2CCOCC2)cc1` (stereo not given in full), the T1/2 amounted to 92 min.

Take `CN(C)Cc1ccc(C(=O)OCn2ncc3c(=O)[nH]cnc32)cc1`: the T1/2 is 9.4 min. As to `O=C(OCn1ncc2c(=O)[nH]cnc21)c1cccc(Cn2ccnc2)c1`, the T1/2 came to 3.6 min. For `CCCNCc1cccc(C(=O)OCC(=O)[C@@]2(O)CCC3C4CCC5=CC(=O)CCC5(C)C4C(O)CC32C)c1` (stereo not given in full), the T1/2 worked out at 38 min.

With `CC(=O)Nc1ccc(OC(=O)c2cccc(CN3CCN(C)CC3)c2)cc1`, the T1/2 is 27 min. As to `CN1CCN(Cc2cccc(C(=O)OCn3cnc4c3c(=O)n(C)c(=O)n4C)c2)CC1`, the T1/2 is 0.4 min. On the same count and under the same terms, the figure for `Cn1c(=O)c2c(ncn2COC(=O)c2cccc(Cn3ccnc3)c2)n(C)c1=O` is 0.9 min; for `CCN(CC)CCN(CC)Cc1cccc(C(=O)OCC(NC(=O)C(Cl)Cl)C(O)c2ccc([N+](=O)[O-])cc2)c1` (stereo not given) it is 0.9 min. On the same count and under the same terms, the figure for `Cc1ncc([N+](=O)[O-])n1CCOC(=O)c1ccc(CN2CCN(C)CC2)cc1` is 2.4 min.

Take `CN1CCN(Cc2cccc(C(=O)OCN3C(=O)NC(c4ccccc4)(c4ccccc4)C3=O)c2)CC1`: the T1/2 turned out to be 7 min.

For the compound `O=C(OCC(NC(=O)C(Cl)Cl)C(O)c1ccc([N+](=O)[O-])cc1)c1cccc(CN2CCOCC2)c1` (stereo not given), the T1/2 stood at 55 min. The same measure, in the same setting: the figure for `O=C(OCn1ncc2c(=O)[nH]cnc21)c1ccc(CN2CCOCC2)cc1` is 1.9 min; for `CC(=O)Nc1ccc(OC(=O)c2ccc(CN3CCN(C)CC3)cc2)cc1` it is 487 min.

For the origin of these results see ChEMBL document CHEMBL1124371, “A novel solution-stable, water-soluble prodrug type for drugs containing a hydroxyl or an NH-acidic group” (J Med Chem, 1989).
